The target in the test is Coagulation factor XI (Homo sapiens, UniProt P03951). In words: In Vitro Assay: The effectiveness of compounds of the present invention as inhibitors of the coagulation Factors XIa, VIIa, IXa, Xa, XIIa, plasma kallikrein or thrombin, can be determined using a relevant purified serine protease, respectively, and an appropriate synthetic substrate. The rate of hydrolysis of the chromogenic or fluorogenic substrate by the relevant serine protease was measured both in the absence and presence of compounds of the present invention. […] A decrease in the rate of absorbance or fluorescence change in the presence of inhibitor is indicative of enzyme inhibition. Factor XIa determinations were made in 50 mM HEPES buffer at pH 7.4.

Drawing on ChEMBL document CHEMBL3638865, “Macrocycles as factor XIa inhibitors” (2014), this text covers Ki for one compound.

Coagulation factor XI, sequence (P03951 19-387 limits assumed): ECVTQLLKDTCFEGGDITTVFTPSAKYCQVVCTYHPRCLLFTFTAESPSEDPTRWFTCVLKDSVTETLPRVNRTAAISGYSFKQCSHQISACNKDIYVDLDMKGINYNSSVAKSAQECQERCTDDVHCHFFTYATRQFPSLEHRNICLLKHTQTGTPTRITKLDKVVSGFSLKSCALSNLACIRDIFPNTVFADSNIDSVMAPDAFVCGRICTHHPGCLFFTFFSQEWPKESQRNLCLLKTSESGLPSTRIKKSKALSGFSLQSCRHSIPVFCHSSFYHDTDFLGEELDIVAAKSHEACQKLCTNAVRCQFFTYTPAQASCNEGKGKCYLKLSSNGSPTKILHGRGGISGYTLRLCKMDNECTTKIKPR
Coagulation factor XI, sequence (P03951 388-625 limits assumed): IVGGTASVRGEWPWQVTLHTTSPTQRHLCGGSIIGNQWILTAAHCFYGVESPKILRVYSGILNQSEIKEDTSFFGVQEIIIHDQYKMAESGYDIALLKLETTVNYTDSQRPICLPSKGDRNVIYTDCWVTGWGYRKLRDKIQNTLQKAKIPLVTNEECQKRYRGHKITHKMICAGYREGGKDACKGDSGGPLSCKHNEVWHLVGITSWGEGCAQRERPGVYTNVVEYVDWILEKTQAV

By Ki is commonly meant the equilibrium dissociation constant of an inhibitor or competing ligand from its target. For the compound `COC(=O)Nc1ccc2c(c1)CNC(=O)c1ccc(cc1)C[C@H](NC(=O)/C=C/c1cc(Cl)ccc1-n1cnnn1)c1nc-2c(Cl)[nH]1`, the Ki is 8.12 µM.
